Measurements: PubChem BioAssay (NCI)
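Results reflect a 48-hour exposure of cells in 96-well plates to compound at five concentrations. GI50 marks 50% less growth. At the TGI there is no net growth.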

What was measured:
Test in all cases: inhibition of tumour cell growth, NCI panel, 48 h
786-0 renal = system: 786-0 renal
A498 renal = system: A498 renal
A549 NSCLC = system: A549 NSCLC
ACHN renal = system: ACHN renal
CAKI-1 renal = system: CAKI-1 renal
CCRF-CEM leukemia = system: CCRF-CEM leukemia
COLO 205 colon = system: COLO 205 colon
DU-145 prostate = system: DU-145 prostate
EKVX NSCLC = system: EKVX NSCLC
HCC-2998 colon = system: HCC-2998 colon
HCT-116 colon = system: HCT-116 colon
HCT-15 colon = system: HCT-15 colon
HL-60(TB) leukemia = system: HL-60(TB) leukemia
HOP-62 NSCLC = system: HOP-62 NSCLC
HOP-92 NSCLC = system: HOP-92 NSCLC
HS 578T breast = system: HS 578T breast
HT29 colon = system: HT29 colon
IGROV1 ovarian = system: IGROV1 ovarian
KM12 colon = system: KM12 colon
LOX IMVI melanoma = system: LOX IMVI melanoma
M14 melanoma = system: M14 melanoma
MALME-3M melanoma = system: MALME-3M melanoma
MCF7 breast = system: MCF7 breast
MDA-MB-231 breast = system: MDA-MB-231 breast
MDA-MB-435 = system: MDA-MB-435
MDA-N = system: MDA-N
MOLT-4 leukemia = system: MOLT-4 leukemia
NCI-H226 lung = system: NCI-H226 lung
NCI-H23 lung = system: NCI-H23 lung
NCI-H460 lung = system: NCI-H460 lung
NCI-H522 lung = system: NCI-H522 lung
NCI/ADR-RES ovarian = system: NCI/ADR-RES ovarian
OVCAR-3 ovarian = system: OVCAR-3 ovarian
OVCAR-4 ovarian = system: OVCAR-4 ovarian
OVCAR-5 ovarian = system: OVCAR-5 ovarian
OVCAR-8 ovarian = system: OVCAR-8 ovarian
PC-3 prostate = system: PC-3 prostate
RXF 393 renal = system: RXF 393 renal
SF-268 CNS = system: SF-268 CNS
SF-295 CNS = system: SF-295 CNS
SF-539 CNS = system: SF-539 CNS
SK-MEL-2 melanoma = system: SK-MEL-2 melanoma
SK-MEL-28 melanoma = system: SK-MEL-28 melanoma
SK-MEL-5 melanoma = system: SK-MEL-5 melanoma
SK-OV-3 ovarian = system: SK-OV-3 ovarian
SN12C renal = system: SN12C renal
SNB-19 CNS = system: SNB-19 CNS
SW-620 colon = system: SW-620 colon
T-47D breast = system: T-47D breast
TK-10 renal = system: TK-10 renal
UACC-257 melanoma = system: UACC-257 melanoma
UACC-62 melanoma = system: UACC-62 melanoma
BT-549 breast = system: BT-549 breast
K-562 leukemia = system: K-562 leukemia
RPMI-8226 leukemia = system: RPMI-8226 leukemia
SNB-75 CNS = system: SNB-75 CNS
SR leukemia = system: SR leukemia
U251 CNS = system: U251 CNS
UO-31 renal = system: UO-31 renal

CCOC(=O)c1ccc(N=C2Sc3nc4ccccc4n3C2=Nc2ccc(C(=O)OCC)cc2)cc1
TGI (786-0 renal): 24.5 µM
TGI (A498 renal): 81.4 µM
TGI (A549 NSCLC): 69.8 µM
TGI (ACHN renal): 57.2 µM
TGI (CAKI-1 renal): 70.6 µM
TGI (CCRF-CEM leukemia): > 100 µM
TGI (COLO 205 colon): > 100 µM
TGI (DU-145 prostate): > 100 µM
TGI (EKVX NSCLC): > 100 µM
TGI (HCC-2998 colon): > 100 µM
TGI (HCT-116 colon): 19.2 µM
TGI (HCT-15 colon): > 100 µM
TGI (HL-60(TB) leukemia): > 100 µM
TGI (HOP-62 NSCLC): 46.5 µM
TGI (HOP-92 NSCLC): 35.9 µM
TGI (HS 578T breast): 75.5 µM
TGI (HT29 colon): > 100 µM
TGI (IGROV1 ovarian): 60.4 µM
TGI (KM12 colon): > 100 µM
TGI (LOX IMVI melanoma): 81.8 µM
TGI (M14 melanoma): 37.1 µM
TGI (MALME-3M melanoma): 51.8 µM
TGI (MCF7 breast): 31.3 µM
TGI (MDA-MB-231 breast): 52.5 µM
TGI (MDA-MB-435): > 100 µM
TGI (MDA-N): 65 µM
TGI (MOLT-4 leukemia): > 100 µM
TGI (NCI-H226 lung): 73.8 µM
TGI (NCI-H23 lung): 83.8 µM
TGI (NCI-H460 lung): 69.6 µM
TGI (NCI-H522 lung): > 100 µM
TGI (NCI/ADR-RES ovarian): 72.7 µM
TGI (OVCAR-3 ovarian): 53.4 µM
TGI (OVCAR-4 ovarian): 81.5 µM
TGI (OVCAR-5 ovarian): > 100 µM
TGI (OVCAR-8 ovarian): 89.7 µM
TGI (PC-3 prostate): > 100 µM
TGI (RXF 393 renal): 59.3 µM
TGI (SF-268 CNS): 84.3 µM
TGI (SF-295 CNS): 37.3 µM
TGI (SF-539 CNS): 41.6 µM
TGI (SK-MEL-2 melanoma): 91.5 µM
TGI (SK-MEL-28 melanoma): > 100 µM
TGI (SK-MEL-5 melanoma): 63.2 µM
TGI (SK-OV-3 ovarian): > 100 µM
TGI (SN12C renal): > 100 µM
TGI (SNB-19 CNS): 25.2 µM
TGI (SW-620 colon): > 100 µM
TGI (T-47D breast): > 100 µM
TGI (TK-10 renal): 32.6 µM
TGI (UACC-257 melanoma): > 100 µM
TGI (UACC-62 melanoma): 54.4 µM

COc1cc(/C=C2\CCC/C(=C\c3cc(CN4CCCC4)c(O)c(OC)c3)C2=O)cc(CN2CCCC2)c1O
GI50 (786-0 renal): 3.15 µM
TGI (786-0 renal): 14.7 µM
GI50 (A498 renal): 2.94 µM
TGI (A498 renal): 8.54 µM
GI50 (A549 NSCLC): 3.5 µM
TGI (A549 NSCLC): 12.8 µM
GI50 (ACHN renal): 1.71 µM
TGI (ACHN renal): 3.43 µM
GI50 (BT-549 breast): 4.79 µM
TGI (BT-549 breast): 17.8 µM
GI50 (CAKI-1 renal): 5.51 µM
TGI (CAKI-1 renal): 17.7 µM
GI50 (CCRF-CEM leukemia): 2.71 µM
TGI (CCRF-CEM leukemia): 8.37 µM
GI50 (COLO 205 colon): 1.19 µM
TGI (COLO 205 colon): 2.76 µM
GI50 (DU-145 prostate): 4.63 µM
TGI (DU-145 prostate): 15.4 µM
GI50 (EKVX NSCLC): 6.94 µM
TGI (EKVX NSCLC): 20.2 µM
GI50 (HCC-2998 colon): 2.55 µM
TGI (HCC-2998 colon): 6.38 µM
GI50 (HCT-116 colon): 1.66 µM
TGI (HCT-116 colon): 3.36 µM
GI50 (HCT-15 colon): 2.34 µM
TGI (HCT-15 colon): 7.87 µM
GI50 (HL-60(TB) leukemia): 2.15 µM
TGI (HL-60(TB) leukemia): 5.75 µM
GI50 (HOP-62 NSCLC): 2.93 µM
TGI (HOP-62 NSCLC): 9.35 µM
GI50 (HOP-92 NSCLC): 2.11 µM
TGI (HOP-92 NSCLC): 11.8 µM
GI50 (HS 578T breast): 5.75 µM
TGI (HS 578T breast): 50.9 µM
GI50 (HT29 colon): 0.322 µM
TGI (HT29 colon): 1.78 µM
GI50 (IGROV1 ovarian): 3.24 µM
TGI (IGROV1 ovarian): 13.3 µM
GI50 (K-562 leukemia): 3 µM
TGI (K-562 leukemia): 16.9 µM
GI50 (KM12 colon): 2.73 µM
TGI (KM12 colon): 7.15 µM
GI50 (LOX IMVI melanoma): 1.74 µM
TGI (LOX IMVI melanoma): 3.36 µM
GI50 (M14 melanoma): 2.9 µM
TGI (M14 melanoma): 8.63 µM
GI50 (MALME-3M melanoma): 2.73 µM
TGI (MALME-3M melanoma): 6.41 µM
GI50 (MCF7 breast): 4.82 µM
TGI (MCF7 breast): 23.6 µM
GI50 (MDA-MB-231 breast): 3.81 µM
TGI (MDA-MB-231 breast): 12.8 µM
GI50 (MDA-MB-435): 2.75 µM
TGI (MDA-MB-435): 7.46 µM
GI50 (MOLT-4 leukemia): 2.43 µM
TGI (MOLT-4 leukemia): 8.98 µM
GI50 (NCI-H226 lung): 2.57 µM
TGI (NCI-H226 lung): 6.84 µM
GI50 (NCI-H23 lung): 4.81 µM
TGI (NCI-H23 lung): 19.8 µM
GI50 (NCI-H460 lung): 2.97 µM
TGI (NCI-H460 lung): 10.6 µM
GI50 (NCI-H522 lung): 2.5 µM
TGI (NCI-H522 lung): 7.92 µM
GI50 (NCI/ADR-RES ovarian): 3.47 µM
TGI (NCI/ADR-RES ovarian): > 100 µM
GI50 (OVCAR-3 ovarian): 3.89 µM
TGI (OVCAR-3 ovarian): 13.8 µM
GI50 (OVCAR-4 ovarian): 5.93 µM
TGI (OVCAR-4 ovarian): > 100 µM
GI50 (OVCAR-5 ovarian): 4.18 µM
TGI (OVCAR-5 ovarian): 13.4 µM
GI50 (OVCAR-8 ovarian): 3.27 µM
TGI (OVCAR-8 ovarian): > 100 µM
GI50 (PC-3 prostate): 3.88 µM
TGI (PC-3 prostate): 16.6 µM
GI50 (RPMI-8226 leukemia): 2.16 µM
TGI (RPMI-8226 leukemia): 7.58 µM
GI50 (RXF 393 renal): 1.72 µM
TGI (RXF 393 renal): 5.68 µM
GI50 (SF-268 CNS): 4.53 µM
TGI (SF-268 CNS): 16.3 µM
GI50 (SF-295 CNS): 9.89 µM
TGI (SF-295 CNS): 25.2 µM
GI50 (SF-539 CNS): 1.72 µM
TGI (SF-539 CNS): 3.63 µM
GI50 (SK-MEL-2 melanoma): 5.09 µM
TGI (SK-MEL-2 melanoma): 19.5 µM
GI50 (SK-MEL-28 melanoma): 10.1 µM
TGI (SK-MEL-28 melanoma): 22.7 µM
GI50 (SK-MEL-5 melanoma): 4.12 µM
TGI (SK-MEL-5 melanoma): 15.5 µM
GI50 (SK-OV-3 ovarian): 4.58 µM
TGI (SK-OV-3 ovarian): 16.5 µM
GI50 (SN12C renal): 4.89 µM
TGI (SN12C renal): 21.2 µM
GI50 (SNB-19 CNS): 8.21 µM
TGI (SNB-19 CNS): 20.8 µM
GI50 (SNB-75 CNS): 5.02 µM
TGI (SNB-75 CNS): 47.9 µM
GI50 (SR leukemia): 2.56 µM
TGI (SR leukemia): 11.8 µM
GI50 (SW-620 colon): 3.62 µM
TGI (SW-620 colon): 12.9 µM
GI50 (T-47D breast): 7.97 µM
TGI (T-47D breast): 22.3 µM
GI50 (TK-10 renal): 4.36 µM
TGI (TK-10 renal): 15.5 µM
GI50 (U251 CNS): 3.03 µM
TGI (U251 CNS): 11.2 µM
GI50 (UACC-257 melanoma): 5.29 µM
TGI (UACC-257 melanoma): 19.6 µM
GI50 (UACC-62 melanoma): 3.45 µM
TGI (UACC-62 melanoma): 12.9 µM
GI50 (UO-31 renal): 10.1 µM
TGI (UO-31 renal): 21.7 µM
